Reference: patent publication US20250282895A1, “PHARMACEUTICAL COMPOSITIONS OF CHEMOTHERAPEUTIC AGENTS BASED ON BETA-S[…]-AMINO ACID DERIVATIVES” (priority 2021, published 2025)
Where a name gives a salt, the structure may show the parent alone.

Assay: Stability of Compound (1c) hydrochloride salt/SBE6.5-β-CD guest-host inclusion complex in 0.9% saline (HPLC/UV)
Format: physicochemical
Settings: SBE6.5-β-CD complex in 0.9% saline
Experimental: A stock solution was prepared by dissolving 68.8 mg (0.206 mmol) of Compound (1c) (free base) in about 20.0 mL of a mixture of acetonitrile/water (1:1, v/v) with vortexing in a clean graduated glass cylinder (25 mL). A solution of 0.407 mL of 0.5072 M aq. HCl (0.206 mmol, 1.0 eq.; Fluka, 318957) was added with gentle vortexing, and the resulting clear solution was further diluted to 25.0 mL with a mixture of acetonitrile/water (1:1, v/v) with gentle vortexing to afford a stock solution of Compound (1c) as a mono-HCl salt of a concentration 2.75 mg/mL. This solution was filtered through a 0.45 μm nylon syringe filter into a clean 50 mL Erlenmeyer flask. Aliquots of 2.0 mL (2× 1.0 mL; 2× 2.75 mg) of the stock solution were rapidly pipetted into clean 12 mL scintillation vials. The aliquots were frozen at −78° C. (dry ice/acetone bath) and lyophilized at about 100 mTorr for about 16 hours to provide test vials each containing 6.1 mg (0.0165 mmol) of Compound (1c) mono-hydrochloride salt (mono-HCl salt) (corresponding to 5.5 mg of Compound (1c)),free base, as a colorless powdery solid.
A cyclodextrin derivative (270 mg; SBE6.5-β-CD, Captisol®, average MW 2,163 g/mol) was added to 6.1 mg (0.0165 mmol) of(S)-3-amino-4-(5-(bis(2-chloroethyl)amino)-2-methylphenyl) butanoic acid mono hydrochloride salt (Compound (1c) mono-HCl salt) in a 12 mL glass vial and dissolved in 3 mL to 4 mL of double-distilled water by vortexing for about 30 sec to provide a clear, colorless solution. The solution was filtered through a 0.45 μm nylon syringe filter into a 12 mL glass vial. The filter was washed twice with double-distilled water (each about 0.5 mL) to provide a clear colorless solution having a pH from 4.4 to 4.7. The filtered solution was frozen at −78° C. (dry ice/acetone bath) and the solvent was lyophilized off at about 100 mTorr for about 16 hours to provide a colorless powdery solid consisting of 6.1 mg (0.0165 mmol) of Compound (1c) mono-HCl salt (corresponding to 5.5 mg of Compound (1c) as free base) and 270 mg of SBE6.5-β-CD, Captisol®). Several vials with the cyclodextrin derivative/Compound (1c) mono-HCl salt guest-host inclusion complex were prepared according to this method.
The cyclodextrin derivative/Compound (1c) mono-HCl salt guest-host inclusion complex was reconstituted by dissolving the guest-host inclusion complex in 0.86 mL of 0.9% saline to provide 1.0 mL of a solution having a nominal concentration of 6.1 mg/mL of Compound (1c) mono-HCl salt guest-host inclusion complex which equates to a nominal concentration of 5.5 mg/mL of the Compound (1c)) guest-host inclusion complex.
A 0.5 mL aliquot of this solution was diluted with 5.0 mL of 0.9% saline, and the pH adjusted with 5 μL of a saturated aqueous NaHCO3 solution to provide 5.5 mL of a clear, colorless solution having a nominal concentration of 0.5 mg/mL Compound (1c) compound and a pH from 5.3 to 5.5.
A 1.0 mL aliquot of the reconstituted solution was diluted with 4.5 mL of 0.9% saline, and the pH was adjusted with about 10 μL of a saturated aqueous NaHCO3 solution to provide 5.5 mL of a clear, colorless solution having a nominal concentration of 1.0 mg/mL of Compound (1c) and a pH of 5-6.
A 1.0 mL aliquot of the reconstituted solution was diluted with 1.75 mL of 0.9% saline, and the pH was adjusted with about 10 μL of a saturated aqueous NaHCO3 solution to provide 2.75 mL of a clear, colorless solution having a nominal concentration of 2.0 mg/mL of Compound (1c) and a pH of 5-6.
The solutions were placed in glass vials and stored at either room temperature (about 25° C.) or refrigerated (about 0° C.), and the amount of Compound (1c) was measured at intervals using analytical high pressure liquid chromatography coupled to a UV detector (HPLC/UV) as described in Example 4.

With Cc1ccc(N(CCCl)CCCl)cc1C[C@H](N)CC(=O)O [Compound (1c)•HCl, (S)-3-amino-4-(5-(bis(2-chloroethyl)amino)-2-methylphenyl) butanoic acid mono hydrochloride salt] the “Compound (1c) (% AUC)” value (nominal 0.125 mg/mL, 0° C., 31 hours) was 93 % AUC, the “Compound (1c) (% AUC)” value (nominal 0.125 mg/mL, 25° C., 2 hours) was 98 % AUC and the “Compound (1c) (% AUC)” value (nominal 0.5 mg/mL, 0° C., 9 hours) was 99 % AUC. For the same compound, the “Compound (1c) (% AUC)” value (nominal 0.5 mg/mL, 25° C., 2 hours) was 97 % AUC, the “Compound (1c) (% AUC)” value (nominal 1.0 mg/mL, 0° C., 31 hours) was 100 % AUC and the “Compound (1c) (% AUC)” value (nominal 1.0 mg/mL, 25° C., 2 hours) was 91 % AUC. For the same compound, the “Compound (1c) (% AUC)” value (nominal 2.0 mg/mL, 0° C., 31 hours) was 91 % AUC and the “Compound (1c) (% AUC)” value (nominal 2.0 mg/mL, 25° C., 2 hours) was 99 % AUC.
